Patent publication US8022072B2, “Azolylmethylidenehydrazine derivative and use thereof” (Kaken Pharmaceutical Co., Ltd., priority 2007, dated 2011)
Values after ≈ are worked out from the molar mass of the structure shown.

Tests used:
Format in all cases: cell-based
[1] = system: Trichophyton mentagrophytes KD-04; assay: Influence of keratin addition on anti-Trichophyton activity; settings: for MIC increase by the addition of keratin to medium: Trichophyton, text summary of Table 4; for MIC: Trichophyton mentagrophytes, KD04, 168 h, 30° C., 7 days
Experimental: The MIC increase rate by the addition of keratin to a medium was measured by the following procedure. • Test compound solution: A test compound was dissolved in dimethyl sulfoxide (DMSO) at a concentration of 5 mg/mL as a stock solution. Diluting this solution with DMSO, a 2-fold dilution series was prepared. • Test strain: Trichophyton mentagrophytes KD-04 was used. Preparation of Fungal Inoculum: the Above-Mentioned Strain was suspended in 0.05% Tween 80-containing physiological saline, and adjusted to a fungus concentration of 2×10^6 cells/mL using a counting chamber. […] The physiological saline was removed, and the mixture was further washed once with physiological saline (3 mL). The physiological saline was removed, and a test compound solution (10 μL) and Sabouraud Dextrose Broth (Difco) (500 μL) were added to keratin, and the mixture was sufficiently stirred. Then, inoculum (500 μL) of T. mentagrophytes KD-04 was added, and the mixture was cultured at 30° C. for 7 days. As a comparison control, an experiment similar to the above was performed under conditions free of keratin addition.

[2] = system: Trichophyton rubrum KD-107; assay: Antifungal activity evaluation test, MIC, Trichophyton rubrum KD-107; settings: KD107, 168 h, Sabouraud Dextrose Broth, 30° C., 7 days, visual, read-out: MIC T. rub. KD-107
Experimental: (§1) The minimum inhibitory concentration (MIC) for Trichophyton mentagrophytes, Trichophyton rubrum, and Malassezia furfur was measured according to the following procedure. • Test compound solution: A test compound was dissolved in dimethyl sulfoxide (DMSO) at a concentration of 5 mg/mL as a stock solution. […] Then, as a test medium, a fungal solution of Trichophyton species was 100-fold diluted with Sabouraud Dextrose Broth (Difco), and a fungal solution of Malassezia furfur IFO-0656 was 100-fold diluted with MU medium to give each inoculum (2×10^4 cells/mL). • Measurement of MIC of Trichophyton fungi: Sabouraud Dextrose Broth (Difco) was dispensed by 100 μL to a given well of a 96 well flat microplate. Then, a test compound solution (2 μL) was added, and the mixture was thoroughly mixed with a plate mixer. A fungal solution (100 μL) was inoculated and cultured at 30° C. for 7 days. The presence or absence of the cell growth was visually observed, and the minimum medicament concentration at which the cell growth was prevented was taken as MIC (μg/mL). • Measurement of MIC of Malassezia furfur: Since the urease activity of this fungus and the fungus growth rate are co-related, MIC was evaluated by the following method using urease activity as an index. MU medium was dispensed by 100 μL to a given well of a 96 well flat microplate. Then, a test compound solution (2 μL) was added, and the mixture was thoroughly mixed with a plate mixer. A fungal solution (100 μL) was inoculated and cultured at 30° C. The culture was stopped on day 4 or 5 of culture when the color tone of the MU medium changes from yellow to red in visual observation of the fungus growth in a well free of addition of a test substance. Then the plate was stirred until the fungus became uniform, and the urease activity was measured based on the measurement of absorbance at 550 nm using a plate reader.

[3] = system: Malassezia furfur IFO-0656; assay: Antifungal activity evaluation test, MIC by urease activity, Malassezia furfur IFO-0656; settings: IFO0656, 96 h, MU medium, 30° C., day 4 or 5, urease activity of 20% or below, read-out: MIC M. fur. IFO-0656
Experimental: as §1

[4] = system: Trichophyton mentagrophytes KD-04; assay: Antifungal activity evaluation test, MIC, Trichophyton mentagrophytes KD-04; settings: KD04, 168 h, Sabouraud Dextrose Broth, 30° C., 7 days, visual, read-out: MIC T. men. KD-04
Experimental: as §1

[5] = system: Trichophyton rubrum KD-101; assay: Antifungal activity evaluation test, MIC, Trichophyton rubrum KD-101; settings: KD101, 168 h, Sabouraud Dextrose Broth, 30° C., 7 days, visual, read-out: MIC T. rub. KD-101
Experimental: as §1

[6] = system: Trichophyton mentagrophytes SM-110; assay: Antifungal activity evaluation test, MIC, Trichophyton mentagrophytes SM-110; settings: SM110, 168 h, Sabouraud Dextrose Broth, 30° C., 7 days, visual, read-out: MIC T. men. SM-110
Experimental: as §1

| Structure (SMILES) | MIC increase by the addition of keratin to medium [1] | MIC [2] | MIC [3] | MIC [4] | MIC ([1]; T. mentagrophytes KD-04, free of keratin addition, read-out: MIC SDB alone) | MIC ([1]; T. mentagrophytes KD-04, keratin 50 mg added, read-out: MIC SDB + keratin) | MIC [5] | MIC [6] |
| --- | --- | --- | --- | --- | --- | --- | --- | --- |
| CCC(C)n1ncn(-c2ccc(N3CCN(c4ccc(OCC5COC(Cn6cncn6)(c6ccc(Cl)cc6Cl)O5)cc4)CC3)cc2)c1=O (stereo not shown) [itraconazole, reference compound] | 512 fold | – | – | – | – | – | – | – |
| CCOc1ccccc1C(=NN(C)C)n1ccnc1 [Compound No. 16, N′-[1-(2-ethoxyphenyl)-1-imidazol-1-ylmethylidene]-N,N-dimethylhydrazine] | – | 0.2 µg/mL (≈ 0.774 µM) | 12.5 µg/mL (≈ 48.4 µM) | 0.2 µg/mL (≈ 0.774 µM) | 0.39 µg/mL (≈ 1.51 µM) | 0.39 µg/mL | 0.2 µg/mL (≈ 0.774 µM) | 0.39 µg/mL (≈ 1.51 µM) |
| CCCCCOc1cccnc1C(=NN(C)C)n1ccnc1 [Compound No. 95, N′-[1-imidazol-1-yl-1-(3-pentyloxypyridin-2-yl)methylidene]-N,N-dimethylhydrazine] | – | 0.78 µg/mL (≈ 2.59 µM) | > 25 µg/mL | 1.56 µg/mL (≈ 5.18 µM) | – | – | 1.56 µg/mL (≈ 5.18 µM) | 3.13 µg/mL (≈ 10.4 µM) |
| CCCCCOc1ccc2ccccc2c1C(=NN(C)C)n1ccnc1 [Compound No. 93, N′-[1-imidazol-1-yl-1-(2-pentyloxynaphthalen-1-yl)methylidene]-N,N-dimethylhydrazine] | – | 0.1 µg/mL (≈ 0.285 µM) | 6.25 µg/mL (≈ 17.8 µM) | 0.2 µg/mL (≈ 0.571 µM) | – | – | 0.1 µg/mL (≈ 0.285 µM) | 0.39 µg/mL (≈ 1.11 µM) |
| CCC(C)(C)c1ccc(CC(C)CN2C[C@@H](C)O[C@@H](C)C2)cc1 (stereo partly shown) [amorolfine, reference compound] | 8 fold | – | – | – | – | – | – | – |
| CC(C)Oc1ccccc1C(=NN1CCCCCC1)n1ccnc1 [Compound No. 198, homopiperidin-1-yl-[1-imidazol-1-yl-1-(2-isopropoxyphenyl)methylidene]amine] | – | 0.1 µg/mL (≈ 0.306 µM) | 0.78 µg/mL (≈ 2.39 µM) | 0.1 µg/mL (≈ 0.306 µM) | – | – | 0.2 µg/mL (≈ 0.613 µM) | 0.2 µg/mL (≈ 0.613 µM) |
| Fc1ccc(COc2ccccc2C(=NN2CCCC2)n2ccnc2)cc1 [Compound No. 158, [1-[2-(4-fluorobenzyloxy)phenyl]-1-imidazol-1-ylmethylidene]pyrrolidin-1-ylamine] | – | 0.1 µg/mL (≈ 0.274 µM) | 1.56 µg/mL (≈ 4.28 µM) | 0.2 µg/mL (≈ 0.549 µM) | – | – | 0.2 µg/mL (≈ 0.549 µM) | 0.2 µg/mL (≈ 0.549 µM) |
| CCCCCN(C)c1ccccc1C(=NN(C)C)n1ccnc1 [Compound No. 87, N′-[1-imidazol-1-yl-1-[2-(N-methyl-N-pentylamino)phenyl]methylidene]-N,N-dimethylhydrazine] | – | 0.05 µg/mL (≈ 0.16 µM) | 0.78 µg/mL (≈ 2.49 µM) | 0.05 µg/mL (≈ 0.16 µM) | – | – | 0.05 µg/mL (≈ 0.16 µM) | 0.1 µg/mL (≈ 0.319 µM) |
| CCCCCOc1ccc(OC)cc1C(=NN1CCCCCC1)n1ccnc1 [Compound No. 211, homopiperidin-1-yl-[1-imidazol-1-yl-1-(5-methoxy-2-pentyloxyphenyl)methylidene]amine] | – | 0.1 µg/mL (≈ 0.26 µM) | 1.56 µg/mL (≈ 4.06 µM) | 0.2 µg/mL (≈ 0.52 µM) | – | – | 0.2 µg/mL (≈ 0.52 µM) | 0.39 µg/mL (≈ 1.01 µM) |
| CCCCCOc1ccc(F)cc1C(=NN(C)C)n1ccnc1 [Compound No. 25, N′-[1-(3-fluoro-6-pentyloxyphenyl)-1-imidazol-1-ylmethylidene]-N,N-dimethylhydrazine] | – | 0.05 µg/mL (≈ 0.157 µM) | 0.39 µg/mL (≈ 1.22 µM) | 0.05 µg/mL (≈ 0.157 µM) | – | – | 0.05 µg/mL (≈ 0.157 µM) | 0.1 µg/mL (≈ 0.314 µM) |
| CCCCCCn1cccc1C(=NN(C)C)n1ccnc1 [Compound No. 104, N′-[1-(1-hexylpyrrol-2-yl)-1-imidazol-1-ylmethylidene]-N,N-dimethylhydrazine] | – | 0.025 µg/mL (≈ 0.087 µM) | > 25 µg/mL | 0.025 µg/mL (≈ 0.087 µM) | – | – | 0.025 µg/mL (≈ 0.087 µM) | 0.05 µg/mL (≈ 0.174 µM) |
